Read-outs that look alike come from different tables or passages of the source.
Experiments:
[1] = test system: HBV viral load in AD38 cells; assay: Viral load production in AD38 cells, quantitative PCR of the core sequence in supernatant; assay type: cell-based; conditions: Hepatitis B virus, 144 h, 6 days incubation
Description: (§1) Assay Measuring Activity of Compounds on Viral Production in and on Viability of AD38 Cells
(§2) AD38 cells grown in a 175 cm flask with “Growth Medium” (DMEM/F12 (1:1) (cat #SH30023.01, Hyclone, 1×Pen/step (cat #: 30-002-CL, Mediatech, Inc), 10% FBS (cat #: 101, Tissue Culture Biologics), 250 μg/mL G418 (cat #: 30-234-CR, Mediatech, Inc), 1 μg/mL Tetracycline (cat #: T3325, Teknova)) were detached with 0.25% trypsin. Tetracycline-free “treatment medium” (15 mL DMEM/F12 (1:1) (cat #SH30023.01, Hyclone, 1×Pen/step (cat #: 30-002-CL, Mediatech, Inc), with 2% FBS, Tet-system approved (cat #: 631106, Clontech) were then added to mix and spun at 1300 rpm for 5 min. Pelleted cells were then re-suspended/washed with 50 mL of 1×PBS 2 times and 10 mL Treatment Medium one time. AD38 cells were then re-suspended with 10 mL of Treatment Medium and counted. Wells of a collagen coated 96-well NUNC microtiter plate were seeded at 50,000/well in 180 μL of Treatment Medium, and 20 μL of in treatment media with either 10% DMSO (Control) or a 10× solution of compound in 10% DMSO was added. Plates were incubated for 6 days at 37° C.
Viral load production was assayed by quantitative PCR of the core sequence. Briefly, 5 μL of clarified supernatant was added to a PCR reaction mixture that contained forward primers HBV-f 5′-CTGTGCCTTGGGTGGCTTT-3′, Reverse primers HBV-r 5′-[…]-3′ and Fluorescent TaqMan™ Probes HBV-probe 5′-FAM/AGCTCCAAA/ZEN/[…]/3IABkFQ-3′ in Quanta Biosciences PerfeCTa® qPCR Toughmix®, and was subsequently on an Applied Biosystems VIIA7 in a final volume of 20 μL. The PCR mixture was incubated at 45° C. for 5 minutes, then 95° C. for 10 min, followed by 40 cycles of 10 seconds at 95° C. and 20 seconds at 60° C. Viral load was quantitated against known standards by using ViiA™ 7 Software. Viral load in the supernatant from wells with treated cells were compared against viral load in supernatant from DMSO control wells (≥3 per plate).

AD38 cells = assay: Viability of AD38 cells, Promega CellTiter-Glo; assay type: cell-based; conditions: 6 days incubation, controls being 100%
Description: as §1, §2
At the end of compound treatment period cell viability was assessed using a Promega CellTiter-Glo protocol. All supernatant was removed the previously treated 96-well microtiter plate, and 50 μL Tetracycline-free treatment medium (DMEM/F12 (1:1), 1×Pen/step (cat #: 30-002-CL, Mediatech, Inc), with 2% FBS, Tet-system approved (cat #: 631106, Clontech), and 1% DMSO was added back to each well. Another 50 μL of CellTiter-Glo reagent solution (Promega, G7573) was then added at room temperature and the contents mixed for 2 minutes on an orbital shaker to induce cell lysis. This was followed by incubation at room temperature for 10 minutes to stabilize the luminescent signal. The luminescence was recorded for 0.2 seconds per well on a Tecan multimode platereader (Infinite M1000 pro). The luminescent signal from each well was normalized against that of untreated (DMSO) control wells. All results in Tables 3-6 were reported with percent viability (with controls being 100%).

[2] = Table 3, compounds of Group 1, read-out: AD38 Viral Load (%) (VL with cmpd/VL in DMSO control) at 10 μM

For Cc1c(C(=O)NCc2cnn(-c3nccs3)c2)ccc2c1NC(=O)c1ccccc1S2(=O)=O [Compound 1153, 9-methyl-11-oxo-N-((1-(thiazol-2-yl)-1H-pyrazol-4-yl)methyl)-10,11-dihydrodibenzo[b,f][1,4]thiazepine-8-carboxamide 5,5-dioxide], the activity at 10 µM ([1]; Table 5, compounds of Group 3, read-out: AD38 Viral Load (%) (VL with cmpd/VL in DMSO control) at 10 μM) was 2.1% and the “AD38 Viability Normalized Result (cmpd/DMSO %) at 10 μM” value (AD38 cells; Table 5, compounds of Group 3) was 92%.
With C[C@H](N)C(=O)N1CCC(c2ncc(CNC(=O)c3ccc4c(c3)NC(=O)c3ccccc3S4(=O)=O)s2)CC1.Cl [Compound 1034, N-((2-(1-(L-alanyl)piperidin-4-yl)thiazol-5-yl)methyl)-11-oxo-10,11-dihydrodibenzo[b,f][1,4]thiazepine-8-carboxamide 5,5-dioxide hydrochloride] the activity at 10 µM [1, 2] was 67.7% and the “AD38 Viability Normalized Result (cmpd/DMSO %) at 10 μM” value (AD38 cells; Table 3, compounds of Group 1) was 106%.
In the case of N#Cc1ccc(-c2ncc(CNC(=O)c3ccc4c(c3)NC(=O)c3ccncc3S4(=O)=O)s2)c(F)c1 [Compound 1021], the activity at 10 µM ([1]; Table 4, compounds of Group 2, read-out: AD38 Viral Load (%) (VL with cmpd/VL in DMSO control) at 10 μM) is reported as 0.3% and the “AD38 Viability Normalized Result (cmpd/DMSO %) at 10 μM” value (AD38 cells; Table 4, compounds of Group 2) is reported as 96%.
CC(C)(C)OC(=O)N1CCC(c2ncc(CNC(=O)c3ccc4c(c3)NC(=O)c3ccccc3S4(=O)=O)s2)CC1 [Compound 926-A] was tested, and the activity at 10 µM [1, 2] was 3.6% and the “AD38 Viability Normalized Result (cmpd/DMSO %) at 10 μM” value (AD38 cells; Table 3, compounds of Group 1) was 98%.
In the case of Cc1cc(=O)[nH]c2cc(C(=O)NCc3cnc(C(F)(F)F)s3)ccc12 [Compound C2-01, 4-Methyl-2-oxo-N-((2-(trifluoromethyl)thiazol-5-yl)methyl)-1,2-dihydroquinoline-7-carboxamide], the activity at 10 µM ([1]; Table 6, compounds of Group 4, read-out: AD38 Viral Load (CpAM/DMSO %) at 10 μM) is reported as 69.7% and the “AD38 Viability Normalized Result (CPAM/DMSO %) at 10 μM” value (AD38 cells; Table 6, compounds of Group 4) is reported as 113%.

Source: patent US10987360B2, “Hepatitis B core protein modulators” (Assembly Biosciences, Inc., priority 2016, dated 2021)
